This note sets out measurements from patent EP2975033A1, “Improved cysteine-protease inhibitors” (Universitat Jaume I, priority 2014, dated 2016).

Structures are written as SMILES. Converted amounts (≈) assume the structure as drawn. Read-outs that look alike come from different tables or passages of the source.

What all share (format): cell-based
For assay [1], the system named is Trypanosoma brucei rhodesiense STIB900. Kind of assay: Activity against Trypanosoma brucei rhodesiense STIB900 (Alamar Blue). As to conditions: Trypanosoma brucei. The procedure:
(§1) For all the susceptibility assays with parasites and cells, each drug was tested in duplicate and each assay was repeated at least once. • a. Activity against Trypanosoma brucei rhodesiense STIB900. This stock was isolated in 1982 from a human patient in Tanzania and after several mouse passages cloned and adapted to axenic culture conditions (Baltz et al 1985) Minimum Essential Medium (50 µl) supplemented with 25 mM HEPES, 1g/l additional glucose, 1% MEM non-essential amino acids (100x), 0.2 mM 2-mercaptoethanol, 1 mM Na-pyruvate and 15% heat inactivated horse serum was added to each well of a 96-well microtiter plate. Serial drug dilutions of eleven 3-fold dilution steps covering a range from 100 to 0.002 µg/ml were prepared. Then 4x10^3 bloodstream forms of T. b. rhodesiense STIB 900 in 50 µl was added to each well and the plate incubated at 37 °C under a 5 % CO2 atmosphere for 70 h. 10 µl Alamar Blue (resazurin, 12.5 mg in 100 ml double-distilled water) was then added to each well and incubation continued for a further 2-4 h (Raz et al 1997). Then the plates were read with a Spectramax Gemini XS microplate fluorometer (Molecular Devices Cooperation, Sunnyvale, CA, USA) using an excitation wave length of 536 nm and an emission wave length of 588 nm. The IC50 values were calculated by linear regression (Huber 1993) from the sigmoidal dose inhibition curves using SoftmaxPro software (Molecular Devices Cooperation, Sunnyvale, CA, USA). Melarsoprol (Arsobal Sanofi-Aventis, received from WHO) is used as control. • b. Activity against T. cruzi. Rat skeletal myoblasts (L-6 cells) were seeded in 96-well microtitre plates at 2000 cells/well in 100 µL RPMI 1640 medium with 10% FBS and 2 mM I-glutamine. After 24 h the medium was removed and replaced by 100 µl per well containing 5000 trypomastigote forms of T. cruzi Tulahuen strain C2C4 containing the β-galactosidase (Lac Z) gene (Buckner et al. 1996). After 48 h the medium was removed from the wells and replaced by 100 µl fresh medium with or without a serial drug dilution of eleven 3-fold dilution steps covering a range from 100 to 0.002 µg/ml. After 96 h of incubation the plates were inspected under an inverted microscope to assure growth of the controls and sterility. Then the substrate CPRG/Nonidet (50 µl) was added to all wells. A color reaction developed within 2-6 h and could be read photometrically at 540 nm. Data were analyzed with the graphic programme Softmax Pro (Molecular Devices), which calculated IC50 values by linear regression (Huber 1993) from the sigmoidal dose inhibition curves. […] Activity against L. donovani axenic amastigotes. Amastigotes of L. donovani strain MHOM/ET/67/L82 were grown in axenic culture at 37 °C in SM medium (Cunnigham et al. 1977) at pH 5.4 supplemented with 10% heat-inactivated fetal bovine serum under an atmosphere of 5% CO2 in air. One hundred microlitres of culture medium with 10^5 amastigotes from axenic culture with or without a serial drug dilution were seeded in 96-well microtitre plates. Serial drug dilutions of eleven 3-fold dilution steps covering a range from 90 to 0.002 µg/ml were prepared. After 70 h of incubation the plates were inspected under an inverted microscope to assure growth of the controls and sterile conditions. 10 µl of Alamar Blue (12.5 mg resazurin dissolved in 100 ml distilled water) (Mikus and Steverdig. 2000) were then added to each well and the plates incubated for another 2 h. Then the plates were read with a Spectramax Gemini XS microplate fluorometer (Molecular Devices Cooperation, Sunnyvale, CA, USA) using an excitation wave length of 536 nm and an emission wave length of 588 nm. Data were analyzed using the software Softmax Pro (Molecular Devices Cooperation, Sunnyvale, CA, USA). Decrease of fluorescence (= inhibition) was expressed as percentage of the fluorescence of control cultures and plotted against the drug concentrations. From the sigmoidal inhibition curves the IC50 values were calculated. • d.
A general note: Alamar Blue is a resazurin reagent that responds to reducing activity.

Assay [2] relates to T. cruzi Tulahuen strain C2C4. The assay can be described thus: Activity against T. cruzi in L-6 cells (beta-galactosidase, CPRG). The following applies: Trypanosoma cruzi, TULAHUEN, L6. As to the method: as §1
Assay [3] concerns L. donovani strain MHOM/ET/67/L82. Kind of assay: Activity against L. donovani axenic amastigotes (Alamar Blue). The following applies: Leishmania donovani. As to the method: as §1
Assay [4] deals with P. falciparum NF54 strain. The assay can be described thus: Activity against P. falciparum, 3H-hypoxanthine incorporation assay. As to conditions: Plasmodium falciparum, NF54.
[5] abbreviates: 70 h, replicate 1, bloodstream forms, 70 h, read-out: T.b.rhod. IC50 repl1.
The mark [6] stands for this setting: 70 h, replicate 2, bloodstream forms, 70 h, read-out: T.b.rhod. IC50 repl2.
The mark [7] stands for this setting: mean of replicates, read-out: T.b.rhod. IC50 mean.
Where [8] appears, read: mean of replicates, read-out: T.cruzi. IC50 mean.
The mark [9] stands for this setting: replicate 1, L-6 cells, 96 h, read-out: T.cruzi. IC50 repl1.
[10] abbreviates: replicate 2, L-6 cells, 96 h, read-out: T.cruzi. IC50 repl2.
[11] abbreviates: mean of replicates, read-out: L.don. ax am IC50 mean.
The mark [12] stands for this setting: replicate 1, axenic amastigotes, pH 5.4, 70 h, read-out: L.don. ax am IC50 repl1.
Where [13] appears, read: mean of replicates, read-out: P.falc NF54 IC50 mean.
Where [14] appears, read: replicate 1, erythrocytic stages, read-out: P.falc NF54 IC50 repl1.
Where [15] appears, read: replicate 2, erythrocytic stages, read-out: P.falc NF54 IC50 repl2.

As to `CCOC(=O)/C=C/C(=O)[C@H](CCc1ccccc1)NC(=O)[C@H](Cc1ccccc1)NC(=O)OCc1ccccc1` [FGA-44], the IC50 worked out at 0.446 µg/mL (≈ 0.822 µM) in assay [1] (setting [5]); 0.564 µg/mL (≈ 1.04 µM) in assay [1] (setting [6]); 0.505 µg/mL (≈ 0.931 µM) in assay [1] (setting [7]); 10.9 µg/mL (≈ 20.1 µM) in assay [2] (setting [8]); 7.74 µg/mL (≈ 14.3 µM) in assay [2] (setting [9]); 14.1 µg/mL (≈ 26 µM) in assay [2] (setting [10]). For the same molecule, the IC50 in assay [3] (setting [11]) was found to be 6.87 µg/mL (≈ 12.7 µM); in assay [3] (setting [12]), 6.87 µg/mL (≈ 12.7 µM); in assay [4] (setting [13]), 6.82 µg/mL (≈ 12.6 µM); in assay [4] (setting [14]), 7.19 µg/mL (≈ 13.3 µM); in assay [4] (setting [15]) it was 6.44 µg/mL (≈ 11.9 µM).

Take `CCOC(=O)/C=C/C(=O)[C@H](CCc1ccccc1)NC(=O)[C@H](CC(C)C)NC(=O)OCc1ccccc1` [FGA-47]: the IC50 in assay [1] (setting [5]) was 1.68 µg/mL (≈ 3.3 µM); in assay [1] (setting [6]), 0.675 µg/mL (≈ 1.33 µM); in assay [1] (setting [7]) it was 1.18 µg/mL (≈ 2.32 µM); in assay [2] (setting [8]), 3.63 µg/mL (≈ 7.14 µM); in assay [2] (setting [9]) it was 5.17 µg/mL (≈ 10.2 µM); in assay [2] (setting [10]), 2.09 µg/mL (≈ 4.11 µM). The 50% inhibitory concentration (IC50) amounted to 0.048 µg/mL (≈ 0.0944 µM) in assay [3] (setting [11]); 0.044 µg/mL (≈ 0.0865 µM) in assay [3] (setting [12]); 0.052 µg/mL (≈ 0.102 µM) in assay [3] (replicate 2, axenic amastigotes, pH 5.4, 70 h, read-out: L.don. ax am IC50 repl2); 0.821 µg/mL (≈ 1.61 µM) in assay [4] (setting [13]); 0.921 µg/mL (≈ 1.81 µM) in assay [4] (setting [14]); 0.72 µg/mL (≈ 1.42 µM) in assay [4] (setting [15]).

For orientation: IC50 means the concentration that gives 50% inhibition.
